Results as given in patent publication US8143394B2, “Pyrido(3,2-d)pyrimidines useful for treating viral infections” (Gilead Sciences, Inc., priority 2006, dated 2012).

Assays:
HCV replicon = experiment: Anti-HCV replicon assay (EC50, luciferase readout); assay type: cell-based; details: Hepatitis C virus, 72 h; human hepatoma Huh-7 cell line harbouring a HCV replicon; 3 days; luciferase; read-out: EC50
Description: (§1) The anti-HCV activity of the pyrido[3,2-d]pyrimidine derivatives of this invention was tested in a human hepatoma Huh-7 cell line harbouring a HCV replicon. The assay comprised the following steps:
(§2) Step 1: Compound Preparation and Serial Dilution
(§3) • 1. for water soluble pyrido[3,2-d]pyrimidine derivatives, a volume of 500 μL of solution in cell media (DMEM, 10% FBS, P/S, L-Glutamine) was prepared with a concentration being twice the concentration of the starting final serial dilution concentration. A volume of 150 μL of the solution was added to the pre-specified wells in column 1 of a 96-well cell culture plate (PerkinElmer, white plate, cat. #6005181, for EC50 assay; black plate, cat. #6005182 for CC50 assay). The rest of the plate, columns 2-12, was filled with 100 μL of cell media. The plate was then placed on a Precision 2000 Workstation to start the serial dilution. Compounds were diluted three times each step from column 1 to column 10. Column 11 was used as a blank control (no compound added). • 2. for pyrido[3,2-d]pyrimidine derivatives requiring DMSO to dissolve, serial dilution is performed in 50% DMSO in a 384-well plate. A solution containing a compound at 100-fold concentration of the starting final serial dilution concentration was prepared in 50% DMSO and added to the pre-specified wells in column 1 of a polypropylene 384-well plate. The plate was then placed on a Precision 2000 Workstation to start the serial dilution. After the serial dilution, a volume of 2 μL of the solution was transferred from the 384-well plate to a 96-well cell culture plate containing 100 μL of cell media on a Biomek FX Workstation. The DMSO concentration in the final assay condition was 0.5% after cells are added to the plate and the total volume in each well is brought to 200 μL. Step 2: to each well of the serial dilution plate prepared above, 100 μL of cell media containing 6000 suspended Huh-7 HCV replicon cells was added with a Multidrop workstation. The plates were incubated for 3 days at 37° C. with 5% CO2. Step 3: Detection: • a) for the EC50 assay, the media in a 96-well cell culture plate was aspirated with a Biotek EL405 plate-washer. A volume of 200 μL of a solution containing a 1:1 mixture of cell-lysis buffer (Promega, Luciferase Cell Culture Lysis 5X Reagent, cat. #E1531) and luciferase substrate solution (Promega, Luciferase Assay, cat. # E4550) was added to each well of the plate with Multidrop. The plate was incubated for 30 minutes at room temperature before the luminescence signal was measured with a TopCount plate-reader. • b) for the CC50 assay, a volume of 100 μL of pre-mixed CellTiter-Glo (Promega, cat. # G7572) solution is added directly to the cell culture in each well of the plate and the luminescence signal is measured with a TopCount plate-reader after 10 minutes of incubation at room temperature.
(§4) Results in table 13 are expressed by the following data: • the 50% effective concentration (EC50), i.e. the concentration that protects 50% of the cell monolayer from virus-induced cythopathic effect, and • the 50% cytostatic concentration (CC50), i.e. the concentration that results in 50% inhibition of cell growth.

[1] = CC50 assay (CellTiter-Glo) in Huh-7 HCV replicon cells; assay type: cell-based, human; details: human, 50% cytostatic concentration
Description: as §1, §2, §3, §4

| Structure (SMILES) | EC50 (HCV replicon) | CC50 at 3 days [1] |
| --- | --- | --- |
| CC(C)(N)C(=O)Nc1ccc(-c2ccc3nc(N)nc(NCCS(C)(=O)=O)c3n2)cc1 [Example 1, 2-Amino-N-{4-[2-amino-4-(2-methanesulfonyl-ethylamino)-pyrido[3,2-d]pyrimidin-6-yl]-phenyl}-2-methyl-propionamide] | < 0.3 µM | < 10 µM |
| CS(=O)(=O)CCNc1nc(N)nc2ccc(-c3cccc(NS(=O)(=O)C4CC4)c3)nc12 [Example 2, Cyclopropanesulfonic acid {3-[2-amino-4-(2-methanesulfonyl-ethylamino)-pyrido[3,2-d]pyrimidin-6-yl]-phenyl}-amide] | 0.3 to 1 µM | > 20 µM |
| CS(=O)(=O)CCNc1nc(N)nc2ccc(-c3cccc(NS(C)(=O)=O)c3)nc12 [Example 3, N-{3-[2-Amino-4-(2-methanesulfonyl-ethylamino)-pyrido[3,2-d]pyrimidin-6-yl]-phenyl}-methanesulfonamide] | 0.3 to 1 µM | > 20 µM |
| CCC(=O)Nc1ccc(-c2ccc3nc(N)nc(NCCS(C)(=O)=O)c3n2)cc1 [Example 4, N-{4-[2-Amino-4-(2-methanesulfonyl-ethylamino)-pyrido[3,2-d]pyrimidin-6-yl]-phenyl}-propionamide] | > 1 µM | > 20 µM |
| CC(C)C(=O)Nc1ccc(-c2ccc3nc(N)nc(NCCS(C)(=O)=O)c3n2)cc1 [Example 5, N-{4-[2-Amino-4-(2-methanesulfonyl-ethylamino)-pyrido[3,2-d]pyrimidin-6-yl]-phenyl}-isobutyramide] | < 0.3 µM | > 20 µM |
| COC(=O)Nc1ccc(-c2ccc3nc(N)nc(NCCS(C)(=O)=O)c3n2)cc1 [Example 6, {4-[2-Amino-4-(2-methanesulfonyl-ethylamino)-pyrido[3,2-d]pyrimidin-6-yl]phenyl}-carbamic acid methyl ester] | 0.3 to 1 µM | 10 to 20 µM |
| CS(=O)(=O)CCNc1nc(N)nc2ccc(-c3ccc(C(=O)NC4CC4)cc3)nc12 [Example 7, 4-[2-Amino-4-(2-methanesulfonyl-ethylamino)-pyrido[3,2-d]pyrimidin-6-yl]-N-cyclopropyl-benzamide] | 0.3 to 1 µM | > 20 µM |
| CCC(=O)Nc1ccc(-c2ccc3nc(N)nc(NCCOC)c3n2)cc1 [Example 8, N-{4-[2-Amino-4-(2-methoxy-ethylamino)-pyrido[3,2-d]pyrimidin-6-yl]-phenyl}-propionamide] | < 0.3 µM | > 20 µM |
| COCCNc1nc(N)nc2ccc(-c3ccc(NC(=O)C(C)C)cc3)nc12 [Example 9, N-{4-[2-Amino-4-(2-methoxy-ethylamino)-pyrido[3,2-d]pyrimidin-6-yl]-phenyl}-isobutyramide] | < 0.3 µM | 10 to 20 µM |
| COCCNc1nc(N)nc2ccc(-c3ccc(NC(=O)OC)cc3)nc12 [Example 10, {4-[2-Amino-4-(2-methoxy-ethylamino)-pyrido[3,2-d]pyrimidin-6-yl]-phenyl}-carbamic acid methyl ester] | 0.3 to 1 µM | > 20 µM |
| COCCNc1nc(N)nc2ccc(-c3ccc(C(=O)NC4CC4)cc3)nc12 [Example 11, 4-[2-Amino-4-(2-methoxy-ethylamino)-pyrido[3,2-d]pyrimidin-6-yl]-N-cyclopropyl-benzamide] | < 0.3 µM | > 20 µM |
| CCC(=O)Nc1ccc(-c2ccc3nc(N)nc(N4CCS(=O)(=O)CC4)c3n2)cc1 [Example 12, N-{4-[2-Amino-4-(1,1-dioxo-1λ^6-thiomorpholin-4-yl)-pyrido[3,2-d]pyrimidin-6-yl]-phenyl}-propionamide] | < 0.3 µM | < 10 µM |
| COC(=O)Nc1ccc(-c2ccc3nc(N)nc(N4CCS(=O)(=O)CC4)c3n2)cc1 [Example 13, {4-[2-Amino-4-(1,1-dioxo-1λ^6-thiomorpholin-4-yl)-pyrido[3,2-d]pyrimidin-6-yl]-phenyl}-carbamic acid methyl ester] | < 0.3 µM | > 20 µM |
| CC(C)C(=O)Nc1ccc(-c2ccc3nc(N)nc(N4CCS(=O)(=O)CC4)c3n2)cc1 [Example 14, N-{4-[2-Amino-4-(1,1-dioxo-1λ^6-thiomorpholin-4-yl)-pyrido[3,2-d]pyrimidin-6-yl]-phenyl}-isobutyramide] | < 0.3 µM | > 20 µM |
| CC(=O)Nc1ccc(-c2ccc3nc(N)nc(N4CCS(=O)(=O)CC4)c3n2)cc1 [Example 15, N-{4-[2-Amino-4-(1,1-dioxo-1λ^6-thiomorpholin-4-yl)-pyrido[3,2-d]pyrimidin-6-yl]-phenyl}-acetamide] | < 0.3 µM | > 20 µM |
| Nc1nc(N2CCS(=O)(=O)CC2)c2nc(-c3ccc(C(=O)NC4CC4)cc3)ccc2n1 [Example 16, 4-[2-Amino-4-(1,1-dioxo-1λ^6-thiomorpholin-4-yl)-pyrido[3,2-d]pyrimidin-6-yl]-N-cyclopropyl-benzamide] | < 0.3 µM | 10 to 20 µM |
| Nc1nc(N2CCOCC2)c2nc(-c3ccc(C(=O)NC4CC4)cc3)ccc2n1 [Example 17, 4-(2-amino-4-morpholin-4-yl-pyrido[3,2-d]pyrimidin-6-yl)-N-cyclopropyl-benzamide] | < 0.3 µM | < 10 µM |
| CCC(=O)Nc1ccc(-c2ccc3nc(N)nc(OCCOC)c3n2)cc1 [Example 18, N-{4-[2-Amino-4-(2-methoxy-ethoxy)-pyrido[3,2-d]pyrimidin-6-yl]-phenyl}-propionamide] | 0.3 to 1 µM | > 20 µM |
| COCCOc1nc(N)nc2ccc(-c3ccc(NC(=O)OC)cc3)nc12 [Example 19, {4-[2-Amino-4-(2-methoxy-ethoxy)-pyrido[3,2-d]pyrimidin-6-yl]-phenyl}-carbamic acid methyl ester] | 0.3 to 1 µM | > 20 µM |
| COCCOc1nc(N)nc2ccc(-c3ccc(C(=O)NC4CC4)cc3)nc12 [Example 20, 4-[2-Amino-4-(2-methoxy-ethoxy)-pyrido[3,2-d]pyrimidin-6-yl]-N-cyclopropyl-benzamide] | < 0.3 µM | > 20 µM |
| CC(C)C(=O)Nc1ccc(-c2ccc3nc(N)nc(OCCF)c3n2)cc1 [Example 21, N-{4-[2-amino-4-(2-fluoro-ethoxy)-pyrido[3,2-d]pyrimidin-6-yl]-phenyl}-isobutyramide] | 0.3 to 1 µM | > 20 µM |
| Nc1nc(O[C@@H]2CCOC2)c2nc(-c3ccc(NC(=O)[C@H]4CCNC4)c(F)c3)ccc2n1 [Example 22, Pyrrolidine-3-carboxylic acid {4-[2-amino-4-(tetrahydro-furan-3-yloxy)-pyrido[3,2-d]pyrimidin-6-yl]-2-fluoro-phenyl}-amide] | < 0.3 µM | > 20 µM |
| CC(C)(N)C(=O)Nc1ccc(-c2ccc3nc(N)nc(O[C@@H]4CCOC4)c3n2)cc1F [Example 23, 2-Amino-N-{4-[2-amino-4-(tetrahydro-furan-3-yloxy)-pyrido[3,2-d]pyrimidin-6-yl]-2-fluoro-phenyl}-2-methyl-propionamide] | < 0.3 µM | > 20 µM |
| Nc1nc(O[C@@H]2CCOC2)c2nc(-c3ccc(NC(=O)[C@H]4CCNC4)cc3)ccc2n1 [Example 24, Pyrrolidine-3-carboxylic acid {4-[2-amino-4-(tetrahydro-furan-3-yloxy)-pyrido[3,2-d]pyrimidin-6-yl]-phenyl}-amide] | > 1 µM | > 20 µM |
| CC(C)(N)C(=O)Nc1ccc(-c2ccc3nc(N)nc(O[C@@H]4CCOC4)c3n2)cc1 [Example 25, 2-Amino-N-{4-[2-amino-4-(tetrahydro-furan-3-yloxy)-pyrido[3,2-d]pyrimidin-6-yl]-phenyl}-2-methyl-propionamide] | < 0.3 µM | 10 to 20 µM |
| CS(=O)(=O)Nc1cccc(-c2ccc3nc(N)nc(O[C@@H]4CCOC4)c3n2)c1 [Example 26, N-{3-[2-Amino-4-(tetrahydro-furan-3-yloxy)-pyrido[3,2-d]pyrimidin-6-yl]-phenyl}-methanesulfonamide] | < 0.3 µM | > 20 µM |
